Key:
Assay type in all cases: cell-based
[1] = target: T1, rCX3CR1 (Rattus norvegicus, UniProt P35411); test: Ga16 assay, CX3CR1 agonism, Ca2+ sensitive photo-protein readout (FLIPRTETRA); settings: rat CX3CR1 cell line
T1 construct: expressed in transfected cells; stably expresses a Ca2+ sensitive photo-protein
T1 sequence (P35411 1-354): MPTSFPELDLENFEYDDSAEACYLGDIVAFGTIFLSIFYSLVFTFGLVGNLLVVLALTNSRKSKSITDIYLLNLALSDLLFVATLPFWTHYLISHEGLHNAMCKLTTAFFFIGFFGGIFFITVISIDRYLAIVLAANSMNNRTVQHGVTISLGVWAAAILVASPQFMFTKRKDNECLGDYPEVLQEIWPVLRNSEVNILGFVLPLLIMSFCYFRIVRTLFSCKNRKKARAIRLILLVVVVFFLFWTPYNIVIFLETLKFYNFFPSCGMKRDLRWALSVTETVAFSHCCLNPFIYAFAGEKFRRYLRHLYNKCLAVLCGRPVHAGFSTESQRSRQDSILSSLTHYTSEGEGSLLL
Protocol: (§1) Compounds (as well as stereoisomer(s) thereof and/or salt(s) thereof) were tested for CX3CR1 agonism in a cell based assay with fluorescent readout in Agonist Mode in dose response in quadruplicate with intra-plate modality).
(§2) Buffers and reagents. PBS (D-PBS without calcium and magnesium; EuroClone); Trypsin (Trypsin 0.05%, EDTA 0.02% in PBS; EuroClone); DMSO (Sigma); Standard tyrode buffer: in-house solution (130 mM NaCl, 5 mM KCl, 2 mM CaCl2), 1 mM MgCl2, 5 mM NaHCO3, 20 mM HEPES in water at pH 7.4; sterile filtered); Coelenterazine, native (Biosynth); stock 10 mM; Agonist: Recombinant Human Fractalkine (CX3CL1) (PeproTech); stock: 10 μM in standard tyrode buffer+BSA 0.1%; stored at −20° C.
(§3) Cell line. Human (hCX3CR1), mouse (mCX3CR1), and rat (rCX3CR1) were used for the assay.
(§4) Assay protocol. Experiments ere performed in 384 MTP format. Cells were seeded at 7,500 cells/well in 25 μl/well complete growth medium without selection antibiotics in 384-well plates. Twenty-four hours later, cells ere assayed for the response to various compounds using the Ca^2+ sensitive photo-protein stably expressed in the cells as readout.
(§5) The experiment was performed in a 384-well format according to the following procedure: • 24h after seeding, pre-incubate the cells at room temperature for 1 hour. • Then remove the culture medium. • Load cells with 20 μL/well of standard tyrode buffer+10 μM ceolenterazine. • Incubate cell plates for 3 hours at RT. • Inject 10 μL/w of 3× concentrated test compounds and controls in assay buffer at the FLIPRTETRA and monitor the kinetic response over a period of 90 seconds.
(§6) Data from FLIPRTETRA measurements were analyzed with the Genedata Screener© software. The following examples are meant to illustrate, but in no way to limit, the claimed invention.

[2] = target: T2, mCX3CR1 (Mus musculus, UniProt Q9Z0D9); test: as above; settings: mouse CX3CR1 cell line
T2 construct: expressed in transfected cells; stably expresses a Ca2+ sensitive photo-protein
T2 sequence (Q9Z0D9 1-354): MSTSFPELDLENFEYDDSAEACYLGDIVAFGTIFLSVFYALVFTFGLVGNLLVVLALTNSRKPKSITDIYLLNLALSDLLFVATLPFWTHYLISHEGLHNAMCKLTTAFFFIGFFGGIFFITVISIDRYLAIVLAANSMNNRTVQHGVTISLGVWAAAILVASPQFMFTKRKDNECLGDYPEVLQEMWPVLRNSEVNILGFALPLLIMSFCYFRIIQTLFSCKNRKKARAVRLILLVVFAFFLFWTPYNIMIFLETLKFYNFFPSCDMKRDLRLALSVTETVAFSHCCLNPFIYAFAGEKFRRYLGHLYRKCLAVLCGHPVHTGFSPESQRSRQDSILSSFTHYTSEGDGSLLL
Protocol: as §1, §2, §3, §4, §5, §6

[3] = target: T3, hCX3CR1 (Homo sapiens, UniProt P49238); test: as above; design: expressed in transfected cells; stably expresses a Ca2+ sensitive photo-protein; settings: human CX3CR1 cell line
T3 sequence (P49238 1-355): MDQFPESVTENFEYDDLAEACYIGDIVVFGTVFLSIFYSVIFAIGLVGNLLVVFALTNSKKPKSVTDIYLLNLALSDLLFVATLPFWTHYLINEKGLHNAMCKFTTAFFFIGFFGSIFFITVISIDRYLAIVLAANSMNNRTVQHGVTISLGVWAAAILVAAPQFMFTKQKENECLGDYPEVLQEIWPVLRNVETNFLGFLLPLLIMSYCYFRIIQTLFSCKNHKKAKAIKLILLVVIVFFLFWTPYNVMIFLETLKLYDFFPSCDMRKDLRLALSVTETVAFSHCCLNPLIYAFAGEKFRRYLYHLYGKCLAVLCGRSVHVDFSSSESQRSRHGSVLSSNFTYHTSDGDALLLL
Protocol: as §1, §2, §3, §4, §5, §6

[4] = target: T3, hCX3CR1; test: Suchi5 assay (HEK/NatClytin/CNG/Suchi5 transiently transfected hCX3CR1, Fluo-8 Ca2+ readout); design: expressed in transfected cells; stably expresses a Ca2+ sensitive photo-protein; settings: Suchi5 assay, HEK/NatClytin/CNG/Suchi5 transfected with hCX3CR1; read-out: hCX3CR1 agonism EC50
Protocol: Buffers and reagents. PBS (D-PBS without calcium and magnesium; EuroClone); Trypsin (Trypsin 0.05%, EDTA 0.02% in PBS; EuroClone); Opti-MEM medium (Thermo Fisher); DMSO (Sigma); Standard tyrode buffer: in-house solution (130 mM NaCl, 5 mM KCl, 2 mM CaCl2), 1 mM MgCl2, 5 mM NaHCO3, 20 mM HEPES in water at pH 7.4; sterile filtered); Screen Quest™ Fluo-8 No Wash Calcium Assay Kit (AAt Bioquest®); Lipofectamine® 2000 Reagent (Thermo Fisher); Agonist: Recombinant Human Fractalkine (CX3CL1) (PeproTech); stock: 10 μM in standard Tyrode buffer/BSA 01%; stored at −20° C.
Cell line. The final cell line for CX3CR1-Suchi5 assay is HEK/NatClytin/CNG/Suchi5 transiently transfected hCX3CR1 cDNA. In this cell line native Gαi signaling is switched to Gαq pathway thanks to the overexpression of a Gαiq chimeric G protein (called Suchi5) to direct Gαi activation towards Ca^2+ release for measurement.
Assay protocol. Experiments are performed in 384 MTP format. Transiently transfected cells are seeded at 20,000 cells/well in 25 μl/well Opti-MEM medium without selection antibiotics in 384-well plates. 4-5-hours later 25 μL/well of complete medium with 20% of FBS are added to the cells. Twenty-four hours later, cells are assayed for the response to various compounds using a fluorescent Ca^2+ sensitive dye (FLUO8-No Wash Dye) as readout.
The experiment is performed in a 384-well format according to the following procedure: • 24h after seeding, remove the culture medium. • Load cells with 20 μL/well of 0.5X FLUO-8 No Wash Dye diluted in assay buffer. • Incubate cell plates for 1 hour at RT. • Inject 10 μL/w of 3× concentrated test compounds and controls in assay buffer at the FLIPRTETRA and monitor the kinetic response over a period of 90 seconds.
Data from FLIPRTETRA measurements are analyzed with the Genedata Screener© software.

EC50 [1] | EC50 [2] | EC50 [3] | EC50 [4] | SMILES
78.9 µM | 87.1 µM | 18.3 µM | 14.4 µM | CC(C)(CNC(=O)c1cc2c(s1)CCCCCC2)CN1CCC(C)(O)CC1 [Example 67, N-[3-(4-hydroxy-4-methylpiperidin-1-yl)-2,2-dimethylpropyl]-4,5,6,7,8,9-hexahydrocycloocta[b]thiophene-2-carboxamide]
19.4 µM | 25.1 µM | 19.4 µM | 8.4 µM | CC1(O)CCCN(CC2(CNC(=O)c3cc4c(s3)CCCCCC4)CCCC2)C1 (stereo not shown) [Example 52, N-[[1-[(3-hydroxy-3-methylpiperidin-1-yl)methyl]cyclopentyl]methyl]-4,5,6,7,8,9-hexahydrocycloocta[b]thiophene-2-carboxamide]
63 µM | > 100 µM | 19.7 µM | 19.5 µM | CC(C)(CNC(=O)c1cc2c(s1)CCCCCC2)CN1CCC(O)C(C)(C)C1 (stereo not shown) [Example 68, N-[3-(4-hydroxy-3,3-dimethylpiperidin-1-yl)-2,2-dimethylpropyl]-4,5,6,7,8,9-hexahydrocycloocta[b]thiophene-2-carboxamide]
40.9 µM | 99.4 µM | 20.8 µM | 12.9 µM | CC1CCCC1(CNC(=O)c1cc2c(s1)CCCCCC2)CN1CCCC1 (stereo not shown) [Example 62, N-[[2-methyl-1-(pyrrolidin-1-ylmethyl)cyclopentyl]methyl]-4,5,6,7,8,9-hexahydrocycloocta[b]thiophene-2-carboxamide]
81.4 µM | > 100 µM | 22.6 µM | – | COCCOC1CCN(CC(C)(C)CNC(=O)c2cc3c(s2)CCCCCC3)CC1 [Example 42, N-[3-[4-(2-methoxyethoxy)piperidin-1-yl]-2,2-dimethylpropyl]-4,5,6,7,8,9-hexahydrocycloocta[b]thiophene-2-carboxamide]
10.9 µM | 9.6 µM | 11.1 µM | – | O=C(NCC1(CN2CCCC2)CCOC1)c1cc2c(s1)CCCCCC2 (stereo not shown) [Example 39, N-[[3-(pyrrolidin-1-ylmethyl)oxolan-3-yl]methyl]-4,5,6,7,8,9-hexahydrocycloocta[b]thiophene-2-carboxamide]
> 100 µM | > 100 µM | 9.1 µM | – | O=C(NCC1(CN2CCC2)CCC1)c1cc2c(s1)CCCCCC2 [Example 36, N-[[1-(azetidin-1-ylmethyl)cyclobutyl]methyl]-4,5,6,7,8,9-hexahydrocycloocta[b]thiophene-2-carboxamide]
12.1 µM | 18 µM | 12.8 µM | – | O=C(NCC1(CN2CCC2)CCOCC1)c1cc2c(s1)CCCCCC2 [Example 35, N-[[4-(azetidin-1-ylmethyl)oxan-4-yl]methyl]-4,5,6,7,8,9-hexahydrocycloocta[b]thiophene-2-carboxamide]

Second part, the compound before the results:

SMILES | EC50 [1] | EC50 [2] | EC50 [3] | EC50 [4]
CC(C)OC1CCCN(CC2(CNC(=O)c3cc4c(s3)CCCCCC4)CCC2)C1 (stereo not shown) [Example 50, N-[[1-[(3-propan-2-yloxypiperidin-1-yl)methyl]cyclobutyl]methyl]-4,5,6,7,8,9-hexahydrocycloocta[b]thiophene-2-carboxamide] | 43.5 µM | 45.7 µM | 15.8 µM | 16.1 µM
CN(C)CC1(CNC(=O)c2cc3c(s2)CCCCCC3)CC(F)(F)C1 [Example 56, N-[[1-[(dimethylamino)methyl]-3,3-difluorocyclobutyl]methyl]-4,5,6,7,8,9-hexahydrocycloocta[b]thiophene-2-carboxamide] | 23.9 µM | 24.9 µM | 18.5 µM | 9.6 µM
O=C(NCC1(CN2CCCC2)CC(F)(F)C1)c1cc2c(s1)CCCCCC2 [Example 57, N-[[3,3-difluoro-1-(pyrrolidin-1-ylmethyl)cyclobutyl]methyl]-4,5,6,7,8,9-hexahydrocycloocta[b]thiophene-2-carboxamide] | 20.3 µM | 30.1 µM | 15.3 µM | 15.6 µM
O=C(NCC1(CN2CCC(O)CC2)CCOCC1)c1cc2c(s1)CCCCCC2 [Example 40, N-[[4-[(4-hydroxypiperidin-1-yl)methyl]oxan-4-yl]methyl]-4,5,6,7,8,9-hexahydrocycloocta[b]thiophene-2-carboxamide] | 74.9 µM | 83.8 µM | 20.8 µM | –
CN(C)CC1(CNC(=O)c2cc3c(s2)CCCCCC3)CCCOC1 (stereo not shown) [Example 37, N-[[3-[(dimethylamino)methyl]oxan-3-yl]methyl]-4,5,6,7,8,9-hexahydrocycloocta[b]thiophene-2-carboxamide] | 11.5 µM | 15 µM | 12.2 µM | –
CN(C)CC1(CNC(=O)c2cc3c(s2)CCCCCC3)CCOC1 (stereo not shown) [Example 38, N-[[3-[(dimethylamino)methyl]oxolan-3-yl]methyl]-4,5,6,7,8,9-hexahydrocycloocta[b]thiophene-2-carboxamide] | 13.1 µM | 15.8 µM | 10 µM | –
O=C(NCC1(CN2CCCC2)CCCOC1)c1cc2c(s1)CCCCCC2 (stereo not shown) [Example 44, N-[[3-(pyrrolidin-1-ylmethyl)oxan-3-yl]methyl]-4,5,6,7,8,9-hexahydrocycloocta[b]thiophene-2-carboxamide] | 8.4 µM | 10.8 µM | 9.6 µM | –

Reference: patent US12258337B2, “Bicyclic CX3CR1 receptor agonists” (Board of Regents, The University of Texas System, priority 2019, dated 2025)
